According to PMC12610274, “Identification of Marrubiin as a Cathepsin C Inhibitor for Treating Rheumatoid Arthritis” (Molecules, 2025):

Key:
[1] = target: CTSC (Homo sapiens, UniProt P53634); experiment: Human recombinant CTSC isolated enzyme assay; format: biochemical; set-up: purchased R&D Systems; conditions: human recombinant CTSC, cell-free, 12-point dose-response; read-out: CTSC Enz (IC50: nM)
Description: Both recombinant CTSL and CTSC for in vitro cell-free-based enzymatic activity assay can be purchased from R&D Systems (Minneapolis, MN, USA), a biotechnology company. According to the standardized procedures and material ratios provided by R&D Systems, prepare the activation solution (25 mM MES + 5 mM DTT, pH 6.0) and the assay solution (25 mM MES + 50 mM NaCl + 5 mM DTT, pH 6.0) in advance for later use. Dilute the detection substrate H-Gly-Arg-AMC to a 200 µM solution with the assay solution for standby. Prepare the working solution of compounds to be tested using the assay solution, with the concentration of working solution being 10 times the final test concentration. Dilute CTSC and CTSL, respectively, with cold activation solution. Thoroughly mix the two activation solutions containing the proteins to achieve final concentrations of 300 nM for CTSL and 440 nM for CTSC. After co-incubation for 1 h, the activated CTSC treated with CTSL can be used for the enzymatic activity inhibition efficacy test of compounds. Dilute the activated CTSC to 4.4 nM with cold assay buffer. Incubate 4 μL of the activated CTSC with 1 μL of the compound working solution (test group) or 1 μL of blank assay solution (control group) at room temperature for 3 h. Then, add 5 μL of the detection substrate to achieve a final concentration of 100 μM. Mix 5 µL each of the assay solution and the substrate solution as the blank group. After 1 h, the absorbance of detection substrate was measured using a multifunctional microplate reader at excitation/emission wavelengths of 380 nm/460 nm. The inhibitory efficacy of molecules on enzyme activity was calculated based on the absorbance difference between test group and control group. […] Each group of tests mentioned above was independently repeated at least 3 times, and IC50 values were calculated using SPSS 10.0.

[2] = test system: Cat G; experiment: AIA model, serum Cat G activity; format: in vivo, Sprague-Dawley rats; conditions: rat AIA, high dose 60 mg/kg gavage, 15 days
Description: (§1) Thirty 4-week-old male Sprague-Dawley rats (weighing 120–130 g) were randomly divided into 6 groups (5 rats per group) after 1 week of adaptive feeding, namely the normal group, model group, low-dose experimental group (15 mg/kg), medium-dose experimental group (30 mg/kg), high-dose experimental group (60 mg/kg), and positive control group (30 mg/kg). Starting from Day 0 of the experiment, rats in the administration groups and model group were injected intradermally with 0.1 mL of CFA into the left hind paw to induce AIA, while rats in the normal group were injected intradermally with an equal volume (0.1 mL) of normal saline as a control. After 13 consecutive days of feeding, rats treated with CFA successfully developed typical AIA symptoms. […] During the experiment, the body weight, mental state, activity ability, hair color changes, and paw appearance changes of the rats were observed and recorded daily. In addition, on Day 0 of the experiment (baseline period), the basic paw volume of all rats was accurately measured using a plethysmometer, which served as a reference standard for subsequent evaluation of inflammation severity. From Day 13 to Day 28 of the experiment, the paw volume of the rats was measured repeatedly every 3 days. The degree of paw swelling was quantified by calculating the change in paw volume relative to the baseline. […] The cytokine levels in serum were measured. […]

[3] = test system: NE; experiment: Stability (protein level) of NSPs in U937 cells, Western blot, NE; format: cell-based, human; conditions: U937, 10 μM
Description: The Western blot experiments in this study were performed as described below. Cells in the logarithmic growth phase were collected in appropriate numbers according to different experimental purposes. After being thoroughly washed with phosphate-buffered saline and centrifuged, the cell pellets were resuspended in phosphate-buffered saline to obtain single-cell suspensions. Cells were fully lysed using RIPA buffer (Beyotime, P0013B) supplemented with EDTA-free protease and phosphatase inhibitor (Abcam, ab201120). Total cellular protein solutions were obtained after centrifugation to remove cell debris. The isolated proteins were quantified using the BeyoBCA protein assay kit (Beyotime, P0399M) following the operational protocol. The quantified protein samples were thoroughly mixed with protein loading buffer, boiled on a dry bath for 5 min, and then cooled to room temperature for Western blot analysis. […] Finally, enhanced chemiluminescent horseradish peroxidase substrate (Tanon Science & Technology Co., Ltd., Shanghai, China, 180-506) was used to visualize protein bands on a ChemiDoc XRS system (Bio-Rad Laboratories, Inc., Hercules, CA, USA), and the protein bands were quantified using Image Lab analysis software (Version 6.1) (Bio-Rad). […]

[4] = test system: NE; experiment: AIA model, serum NE activity; format: in vivo, Sprague-Dawley rats; conditions: rat AIA, high dose 60 mg/kg gavage, 15 days
Description: as §1

CTSC, sequence (P53634 25-134 limits assumed): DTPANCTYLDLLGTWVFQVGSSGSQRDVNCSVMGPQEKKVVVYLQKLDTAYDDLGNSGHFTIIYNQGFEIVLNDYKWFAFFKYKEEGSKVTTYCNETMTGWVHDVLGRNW
CTSC, sequence (P53634 231-394 limits assumed): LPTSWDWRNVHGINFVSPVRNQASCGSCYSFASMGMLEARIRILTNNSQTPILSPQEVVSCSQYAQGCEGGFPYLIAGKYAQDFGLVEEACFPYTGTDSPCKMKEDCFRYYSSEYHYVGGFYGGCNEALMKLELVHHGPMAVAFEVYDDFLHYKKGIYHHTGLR
CTSC, sequence (P53634 395-463 limits assumed): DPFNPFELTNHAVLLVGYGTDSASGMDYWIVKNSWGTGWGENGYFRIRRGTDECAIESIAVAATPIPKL

## C[C@@H]1C[C@H]2OC(=O)[C@@]3(C)CCC[C@@](C)([C@@H]23)[C@@]1(O)CCc1ccoc1 [Marrubiin, marrubiin]
[1]
  IC50: 57.5 ± 1.3 nM
[2]
  serum Cat G activity, % of control group: ~64%
[3]; 96 h
  NE protein level, % of original level: 15.7%
[3]; 5 days
  NE protein level, % of original level: 8.7%
[4]
  serum NE activity, % of control group: ~47%
